Results on one compound are retold here after US7112565B2, “Stabilized pharmaceutical composition in lyophilized form” (Astellas Pharma Inc., priority 1999, dated 2006).

The nature of the data set: Test Example 7: dependence of stability on the water content of the composition. Conditions: 10 mg Compound (II) + 50 mg lactose. The format is physicochemical. As for the experimental part:
Dependence of the Stability of Lyophilized Compositions of Compound (II) upon the Water Content of the Composition
10 mg of Compound (II) and, as a stabilizer, 50 mg of lactose were dissolved completely in 1 ml of water. The resulting solutions were lyophilized and maintained at 70° C. in glass vials. Nine days after, the resulting compositions were tested on their pH, their water content and the residual amount of Compound (II).

The mark [1] stands for this setting: water content at 0 hours 0.9%, after 9 days at 70° C.
Setting [2] is: water content at 0 hours 1.4%, after 9 days at 70° C.
Where [3] appears, read: water content at 0 hours 2.6%, after 9 days at 70° C.
The mark [4] stands for this setting: water content at 0 hours 3.4%, after 9 days at 70° C.
Setting [5] is: water content at 0 hours 5.1%, after 9 days at 70° C.

For the compound `CCCCCOc1ccc(-c2cc(-c3ccc(C(=O)NC4CC(O)C(O)NC(=O)C5C(O)C(C)CN5C(=O)C(C(O)CC(N)=O)NC(=O)C(C(O)C(O)c5ccc(O)c(OS(=O)(=O)[O-])c5)NC(=O)C5CC(O)CN5C(=O)C(C(C)O)NC4=O)cc3)no2)cc1.[Na+]` (stereo not shown) [Compound (II)], the “pH of reconstituted solution in 1 ml of water” value runs as follows: (all water contents 0.9 to 5.1%, 0 hours) 7.1; under setting [1], 7.5; under setting [2], 7.1; under setting [3], 6.8; under setting [4], 6.8; under setting [5], 3.5. For the same compound, the Residual amount runs as follows: under setting [1], 97.6%; under setting [2], 98.1%; under setting [3], 97.1%; under setting [4], 92.7%; under setting [5], 18.3%. Besides, the Water content runs as follows: under setting [1], 2.5%; under setting [2], 2.9%; under setting [3], 3.6%; under setting [4], 4.3%; under setting [5], 5.4%.
